# Marks after values point to notes of the source that are not given here.
# What was measured:
# [1] = test system: fibroblasts from patients affected by different lysosomal storage diseases; assay: Determination of lysosomal exocytosis (β-hexosaminidase activity in the culture medium); type: cell-based, human; conditions: for Increase in exocytosis (%), Median: Table 4 median over the patients' fibroblasts; for Increase in exocytosis (%), Median / Increase in exocytosis (%): 72 h; for cell cultures with significantly increased lysosomal exocytosis: thirteen patient fibroblast cultures, 50 and 100 μM, 72 hours
# Experimental: (§1) Fibroblasts from thirteen patients affected by seven different lysosomal storage diseases (Fabry, Gaucher, Hurler, Niemann-Pick type A/B, Sanfilippo A, Sanfilippo B and Tay-Sachs) were cultured in DMEM (Dulbecco's modified Eagles medium) with 10% fetal bovine serum and in the presence of antibiotics (penicillin and streptomycin), at 37° C. with 5% CO2. All reagents were purchased from PAA Laboratories (Velizy-Villacoublay, France). The fibroblasts of the patients were selected on the basis of availability of fibroblasts and measurable residual activity. The use of human samples was approved by the Ethical Committee of Hospital Clinic, Barcelona
# Fibroblasts cultured for 72 h in 24 well-plates in the presence or absence of bicalutamide, (S)-bicalutamide, (S)-bicalutamide analogs or (R)-bicalutamide at different concentrations in triplicate (10 nmol/L, 100 nmol/L, 1 μmol/L, 10 μmol/L, 50 μmol/L and 100 μmol/L), were rinsed with physiological saline. The cells were lysed by using 3 freeze-thaw cycles. Then protein concentration was determined by using the Lowry method. Protein lysates (10 μg) were seeded in 96-well plates and the enzymatic activity of the enzyme involved in each disease was determined in triplicate by means of fluorimetric artificial substrates: 4-methylumbelliferyl-α-N-sulphoglucosaminide for Sanfilippo A, 4-methylumbelliferyl-2-acetamido-2 deoxy-α-D-glucopyranoside for Sanfilippo B, 4-methylumbelliferyl-α-L-iduronide for Hurler, 4-methylumbelliferyl-N-acetyl-β-D-glucosaminide for Tay-sachs, 4-methylumbelliferyl-β-D-glucopyranoside for Gaucher, 4-methylumbelliferyl-α-Galactopiranosid for Fabry disease, and 6-hexadecanoylamino-4-methylumbelliferyl-P-colline for Niemann-Pick type AB. The activity of the enzyme β-hexosaminidase was assayed by using 4-methylumbelliferyl-2 acetamido-2 deoxy-β-D-glucopyranoside as artificial substrate [Annunziata et al., Study of influence of sex and age on human serum lysosomal enzymes by using 4-methylumbelliferyl substrates. Clin. Chim. Acta.
# Lysosomal exocytosis was monitorized by measuring the enzymatic activity of the lysosomal enzyme β-hexosaminidase in the culture medium [Xu M, et al, δ-Tocopherol reduces lipid accumulation in Niemann-Pick type C1 and Wolman cholesterol storage disorders. […] The fibroblasts were previously treated with different concentrations of bicalutamide, (S)-bicalutamide or (R)-bicalutamide (10 nmol/L, 100 nmol/L, 1 μmol/L, 10 μmol/L, 50 μmol/L and 100 μmol/L) in triplicate in 24-well plates. At 0, 24, 48 and 72 hours, 30 μL of culture medium was aliquoted for the subsequent β-hexosaminidase activity assay.
# Fibroblasts from two patients affected by Sanfilippo B and Hurler diseases were treated with different concentrations of bicalutamide (racemic mixture at increasing concentrations of 0.01, 0.1, 1, 10 and 100 μM). And the increase in lysosomal exocytosis was determined by analyzing the enzymatic activity of the lysosomal enzyme β-hexosaminidase in the culture medium.
# Fibroblasts from thirteen patients affected by different lysosomal storage diseases (four Sanfilippo B disease patients with different genotypes, three Sanfilippo A disease patients with different genotypes, two Tay-Sachs disease patients with the same genotype, one Gaucher disease patient, one Niemann-pick type A/B disease patient, one Hurler disease patient, and one Fabry disease patient) were independently treated with different concentrations of (R)- and (S)-bicalutamide (50 and 100 μM) for 72 hours.
# [2] = test system: androgen receptors; conditions: cited from earlier work
# [3] = test system: fibroblasts from patients affected by different lysosomal storage diseases; assay: Determination of glycosaminoglycans (GAGs), 1,9-dimethylmethylene blue (DMB) assay; type: cell-based, human; conditions: for Decrease of GAGs (%), Median: Table 5 median over the patients' fibroblasts; for Decrease of GAGs (%), Median / Decrease of GAGs (%): 72 h; for decrease of glycosaminoglycans (in words): fibroblasts from seven patients, 50 and 100 μM
# Experimental: as §1
# Glycobiology. […] The fibroblasts were cultured in triplicate in 6-well plates and they were harvested 72 hours after treatment. DMB absorbance was measured in duplicate at 656 nm with a microplate reader (POLARstar Omega, BMG LABTECH, Offenburg, Germany).
# Fibroblasts from three patients affected by Sanfilippo B disease and one patient affected by Hurler disease were treated with increasing concentrations of bicalutamide (racemic mixture at increasing concentrations of 0.01, 0.1, 1, 10 and 100 μM). Glycosaminoglycans (GAGs) levels were quantified with the 1,9-dimethylmethylene blue (DMB) assay.
# Fibroblasts from seven patients affected by different diseases derived from lysosomal storage (three Sanfilippo B disease patients with different genotypes, one Sanfilippo A disease patient, one Tay-Sachs disease patient, one Niemann-Pick type A/B disease patient and one Hurler disease patient) were independently treated with different concentrations of (R)- and (S)-bicalutamide (50 and 100 μM).
# [4] = Table 4 patient 1, Sanfilippo B fibroblasts, 50 μM
# [5] = Table 4 patient 1, Sanfilippo B fibroblasts, 100 μM
# [6] = Table 4 patient 2, Sanfilippo B fibroblasts, 50 μM
# [7] = Table 4 patient 2, Sanfilippo B fibroblasts, 100 μM
# [8] = Table 4 patient 3, Sanfilippo B fibroblasts, 50 μM
# [9] = Table 4 patient 3, Sanfilippo B fibroblasts, 100 μM
# [10] = Table 4 patient 4, Sanfilippo B fibroblasts, 50 μM
# [11] = Table 4 patient 4, Sanfilippo B fibroblasts, 100 μM
# [12] = Table 4 patient 5, Sanfilippo A fibroblasts, 50 μM
# [13] = Table 4 patient 5, Sanfilippo A fibroblasts, 100 μM
# [14] = Table 4 patient 6, Sanfilippo A fibroblasts, 50 μM
# [15] = Table 4 patient 6, Sanfilippo A fibroblasts, 100 μM
# [16] = Table 4 patient 7, Sanfilippo A fibroblasts, 50 μM
# [17] = Table 4 patient 7, Sanfilippo A fibroblasts, 100 μM
# [18] = Table 4 patient 8, Tay-Sachs fibroblasts, 50 μM
# [19] = Table 4 patient 8, Tay-Sachs fibroblasts, 100 μM
# [20] = Table 4 patient 9, Tay-Sachs fibroblasts, 50 μM
# [21] = Table 4 patient 9, Tay-Sachs fibroblasts, 100 μM
# [22] = Table 4 patient 10, Gaucher fibroblasts, 50 μM
# [23] = Table 4 patient 10, Gaucher fibroblasts, 100 μM
# [24] = Table 4 patient 11, Niemann-Pick AB fibroblasts, 50 μM
# [25] = Table 4 patient 11, Niemann-Pick AB fibroblasts, 100 μM
# [26] = Table 4 patient 12, Hurler fibroblasts, 50 μM
# [27] = Table 4 patient 12, Hurler fibroblasts, 100 μM
# [28] = Table 4 patient 13, Fabry fibroblasts, 50 μM
# [29] = Table 4 patient 13, Fabry fibroblasts, 100 μM
# [30] = Table 5 patient 1, Sanfilippo B fibroblasts, 50 μM
# [31] = Table 5 patient 1, Sanfilippo B fibroblasts, 100 μM
# [32] = Table 5 patient 2, Sanfilippo B fibroblasts, 50 μM
# [33] = Table 5 patient 2, Sanfilippo B fibroblasts, 100 μM
# [34] = Table 5 patient 3, Sanfilippo B fibroblasts, 50 μM
# [35] = Table 5 patient 3, Sanfilippo B fibroblasts, 100 μM
# [36] = Table 5 patient 4, Sanfilippo A fibroblasts, 50 μM
# [37] = Table 5 patient 4, Sanfilippo A fibroblasts, 100 μM
# [38] = Table 5 patient 5, Tay-Sachs fibroblasts, 50 μM
# [39] = Table 5 patient 5, Tay-Sachs fibroblasts, 100 μM
# [40] = Table 5 patient 6, Niemann-Pick AB fibroblasts, 50 μM
# [41] = Table 5 patient 6, Niemann-Pick AB fibroblasts, 100 μM
# [42] = Table 5 patient 7, Hurler fibroblasts, 50 μM
# [43] = Table 5 patient 7, Hurler fibroblasts, 100 μM
compound,measurement,setting,value
"C[C@@](O)(CS(=O)(=O)c1ccc(F)cc1)C(=O)Nc1ccc(C#N)c(C(F)(F)F)c1 [(S)-BICALUTAMIDE (1), (2S)-N-[4-cyano-3-(trifluoromethyl)phenyl]-3-[(4-fluorophenyl)sulfonyl]-2-hydroxy-2-methylpropanamide]","Increase in exocytosis (%), Median",[1]; 50 μM,114* %
same,"Increase in exocytosis (%), Median",[1]; 100 μM,124* %
same,Increase in exocytosis (%),[1]; [4],N.S.
same,Increase in exocytosis (%),[1]; [5],N.S.
same,Increase in exocytosis (%),[1]; [6],N.S.
same,Increase in exocytosis (%),[1]; [7],166* %
same,Increase in exocytosis (%),[1]; [8],N.S.
same,Increase in exocytosis (%),[1]; [9],N.S.
same,Increase in exocytosis (%),[1]; [10],33* %
same,Increase in exocytosis (%),[1]; [11],28* %
same,Increase in exocytosis (%),[1]; [12],72* %
same,Increase in exocytosis (%),[1]; [13],39* %
same,Increase in exocytosis (%),[1]; [14],70* %
same,Increase in exocytosis (%),[1]; [15],64* %
same,Increase in exocytosis (%),[1]; [16],121* %
same,Increase in exocytosis (%),[1]; [17],109* %
same,Increase in exocytosis (%),[1]; [18],N.S.
same,Increase in exocytosis (%),[1]; [19],127* %
same,Increase in exocytosis (%),[1]; [20],N.S.
same,Increase in exocytosis (%),[1]; [21],124* %
same,Increase in exocytosis (%),[1]; [22],N.S.
same,Increase in exocytosis (%),[1]; [23],N.S.
same,Increase in exocytosis (%),[1]; [24],114* %
same,Increase in exocytosis (%),[1]; [25],60* %
same,Increase in exocytosis (%),[1]; [26],13629* %
same,Increase in exocytosis (%),[1]; [27],5949* %
same,Increase in exocytosis (%),[1]; [28],5402* %
same,Increase in exocytosis (%),[1]; [29],3432* %
same,cell cultures with significantly increased lysosomal exocytosis,[1],ten of the thirteen
same,anti-androgenic activity,[2],inactive
same,"Decrease of GAGs (%), Median",[3]; 50 μM,18* %
same,"Decrease of GAGs (%), Median",[3]; 100 μM,38* %
same,Decrease of GAGs (%),[3]; [30],N.S.
same,Decrease of GAGs (%),[3]; [31],22* %
same,Decrease of GAGs (%),[3]; [32],18* %
same,Decrease of GAGs (%),[3]; [33],39* %
same,Decrease of GAGs (%),[3]; [34],15* %
same,Decrease of GAGs (%),[3]; [35],20* %
same,Decrease of GAGs (%),[3]; [36],27.4* %
same,Decrease of GAGs (%),[3]; [37],56* %
same,Decrease of GAGs (%),[3]; [38],31* %
same,Decrease of GAGs (%),[3]; [39],60* %
same,Decrease of GAGs (%),[3]; [40],24* %
same,Decrease of GAGs (%),[3]; [41],38* %
same,Decrease of GAGs (%),[3]; [42],0%
same,Decrease of GAGs (%),[3]; [43],0%
same,decrease of glycosaminoglycans (in words),[3],significant and dose-dependent decrease of glycoaminoglicans
"C[C@@](O)(CS(=O)(=O)c1ccc(F)cc1)C(=O)Nc1ccc(C#N)c(C(F)(F)F)c1 (single isomer, unassigned) [(R)-BICALUTAMIDE (2)]","Increase in exocytosis (%), Median",[1]; 50 μM,0%
same,"Increase in exocytosis (%), Median",[1]; 100 μM,0%
same,Increase in exocytosis (%),[1]; [4],0%
same,Increase in exocytosis (%),[1]; [5],257* %
same,Increase in exocytosis (%),[1]; [6],N.S.
same,Increase in exocytosis (%),[1]; [7],N.S.
same,Increase in exocytosis (%),[1]; [8],N.S.
same,Increase in exocytosis (%),[1]; [9],N.S.
same,Increase in exocytosis (%),[1]; [10],N.S.
same,Increase in exocytosis (%),[1]; [11],0%
same,Increase in exocytosis (%),[1]; [12],0%
same,Increase in exocytosis (%),[1]; [13],0%
same,Increase in exocytosis (%),[1]; [14],N.S.
same,Increase in exocytosis (%),[1]; [15],N.S.
same,Increase in exocytosis (%),[1]; [16],N.S.
same,Increase in exocytosis (%),[1]; [17],0%
same,Increase in exocytosis (%),[1]; [18],N.S.
same,Increase in exocytosis (%),[1]; [19],0%
same,Increase in exocytosis (%),[1]; [20],N.S.
same,Increase in exocytosis (%),[1]; [21],0%
same,Increase in exocytosis (%),[1]; [22],N.S.
same,Increase in exocytosis (%),[1]; [23],0%
same,Increase in exocytosis (%),[1]; [24],N.S.
same,Increase in exocytosis (%),[1]; [25],0%
same,Increase in exocytosis (%),[1]; [26],N.S.
same,Increase in exocytosis (%),[1]; [27],N.S.
same,Increase in exocytosis (%),[1]; [28],N.S.
same,Increase in exocytosis (%),[1]; [29],0%
same,cell cultures with significantly increased lysosomal exocytosis,[1],one of the tested cell cultures
same,anti-androgenic activity,[2],exclusively found in the (R)-enantiomer
same,"Decrease of GAGs (%), Median",[3]; 50 μM,0%
same,"Decrease of GAGs (%), Median",[3]; 100 μM,25* %
same,Decrease of GAGs (%),[3]; [30],N.S.
same,Decrease of GAGs (%),[3]; [31],25* %
same,Decrease of GAGs (%),[3]; [32],N.S.
same,Decrease of GAGs (%),[3]; [33],N.S.
same,Decrease of GAGs (%),[3]; [34],0%
same,Decrease of GAGs (%),[3]; [35],33* %
same,Decrease of GAGs (%),[3]; [36],0%
same,Decrease of GAGs (%),[3]; [37],0%
same,Decrease of GAGs (%),[3]; [38],N.S.
same,Decrease of GAGs (%),[3]; [39],45* %
same,Decrease of GAGs (%),[3]; [40],N.S.
same,Decrease of GAGs (%),[3]; [41],41* %
same,Decrease of GAGs (%),[3]; [42],0%
same,Decrease of GAGs (%),[3]; [43],16* %
same,decrease of glycosaminoglycans (in words),[3],"a decrease of GAGs levels in some cases, but with a lower intensity and not universally"
